Legend:
[1] = Crystal
[2] = Molar enthalpy of transition or fusion; conditions: Crystal; DSC
[3] = molar heat capacity at constant pressure; conditions: 100 kPa, Small sample (50 mg) DSC

N#Cc1ccccc1-c1ccc(CBr)cc1 [4'-(bromomethyl)-2-cyanobiphenyl]
Conditions	molar volume [m3/mol]
[1], 293.15 K, 101.33 kPa, Pycnometric method	0.000223

Conditions	Normal melting temperature [°C]
[1], DTA	126.06

Conditions	Molar enthalpy of transition or fusion [kcal/mol]
[2]	7.05

[3]
Conditions	molar heat capacity at constant pressure [J/K/mol]
293.15 K, Crystal	253.23
297.15 K, Crystal	256.2
301.15 K, Crystal	259.07
305.15 K, Crystal	261.5
309.15 K, Crystal	265.03
313.15 K, Crystal	268.1
317.15 K, Crystal	271.41
321.15 K, Crystal	274.74
325.15 K, Crystal	277.96
329.15 K, Crystal	281.51
333.15 K, Crystal	284.37
337.15 K, Crystal	287.74
341.15 K, Crystal	291.32
345.15 K, Crystal	294.58
349.15 K, Crystal	298.15
353.15 K, Crystal	300.62
357.15 K, Crystal	303.82
361.15 K, Crystal	306.86
365.15 K, Crystal	309.09
369.15 K, Crystal	314.38
373.15 K, Crystal	317.58
433.15 K, Liquid	408.2
437.15 K, Liquid	410.68
441.15 K, Liquid	413.2
445.15 K, Liquid	415.66
449.15 K, Liquid	417.96
453.15 K, Liquid	420.63
457.15 K, Liquid	423.5
461.15 K, Liquid	425.47
465.15 K, Liquid	427.72
469.15 K, Liquid	429.91
473.15 K, Liquid	432.48
477.15 K, Liquid	434.9
481.15 K, Liquid	437.62
485.15 K, Liquid	440.31
489.15 K, Liquid	441.88
493.15 K, Liquid	444.14
